In the NIST ThermoML archive (doi:10.1016/j.jct.2014.04.012):
± gives the expanded uncertainty stated by the source.

Assay: xn = mol fraction of the nth substance listed
Details: 101.3 kPa, Liquid, Pycnometric method

mass density (293.15 K, x2 = 0.2) | mass density (293.15 K, x2 = 0.25) | mass density (303.15 K, x2 = 0.2) | mass density (303.15 K, x2 = 0.25) | mass density (313.15 K, x2 = 0.2) | mass density (313.15 K, x2 = 0.25) | mass density (323.15 K, x2 = 0.2) | mass density (323.15 K, x2 = 0.25) | SMILES | mass density (293.15 K, x1 = 0.2) | mass density (293.15 K, x1 = 0.25) | mass density (303.15 K, x1 = 0.2) | mass density (303.15 K, x1 = 0.25) | mass density (313.15 K, x1 = 0.2) | mass density (313.15 K, x1 = 0.25) | mass density (323.15 K, x1 = 0.2) | mass density (323.15 K, x1 = 0.25) | mass density (293.15 K, x1 = 0.333) | mass density (303.15 K, x1 = 0.333) | mass density (313.15 K, x1 = 0.333) | mass density (323.15 K, x1 = 0.333)
 |  |  |  |  |  |  |  | C[N+](C)(C)CCO.[Cl-] [choline chloride] + OCCOCCO | 1120.3 ± 1 kg/m3 | 1122.4 ± 1 kg/m3 | 1113 ± 1 kg/m3 | 1117.9 ± 1 kg/m3 | 1108.9 ± 1 kg/m3 | 1113 ± 1 kg/m3 | 1103.2 ± 1 kg/m3 | 1108.3 ± 1 kg/m3 |  |  |  | 
 |  |  |  |  |  |  |  | C[N+](C)(C)CCO.[Cl-] [choline chloride] + Oc1ccccc1 | 1091.3 ± 1 kg/m3 | 1092.7 ± 1 kg/m3 | 1085.1 ± 1 kg/m3 | 1087.3 ± 1 kg/m3 | 1081.1 ± 1 kg/m3 | 1083.9 ± 1 kg/m3 | 1076 ± 1 kg/m3 | 1079.5 ± 1 kg/m3 | 1096.6 ± 1 kg/m3 | 1093.8 ± 1 kg/m3 | 1087.2 ± 1 kg/m3 | 1082.5 ± 1 kg/m3
1120.3 ± 1.1 kg/m3 | 1133.1 ± 1.1 kg/m3 | 1114.6 ± 1.1 kg/m3 | 1126.2 ± 1.1 kg/m3 | 1108.9 ± 1.1 kg/m3 | 1119.3 ± 1.1 kg/m3 | 1103.2 ± 1.1 kg/m3 | 1112.4 ± 1.1 kg/m3 | OCCOCCOCCO [triethylene glycol] + C[N+](C)(C)CCO.[Cl-] |  |  |  |  |  |  |  |  |  |  |  | 
